Legend:
Assay in all cases: PRE emergent soil treatment, weed control
Type in all cases: in vivo
Details in all cases: applied to soil, 250 g/ha
[1] = test system: redroot pigweed (Amaranthus retroflexus)
Excerpt: (§1) Compound B was applied to soil as a PRE emergent treatment at the rate of 250 g/ha. The broadleaf weed species velvetleaf (Abutilon theophrasti), redroot pigweed (Amaranthus retroflexus) and lambsquarters (Chenopodium album) were all 100% controlled by this treatment.

[2] = test system: velvetleaf (Abutilon theophrasti)
Excerpt: as §1

[3] = test system: lambsquarters (Chenopodium album)
Excerpt: as §1

Measured: controlled (weed control)

CC(C)=Nn1c(C(F)(F)F)cc(=O)n(-c2cc(Oc3ccccc3[N+](=O)[O-])c(Cl)cc2F)c1=O [Compound B, 3-[4-hloro-2-fluoro-5-(2-nitrophenoxy)phenyl]-1-[(1-methylethylidene)amino]-6-(trifluoromethyl)-2,4(1H,3H)-pyrimidinedione]
100%: all assays above

— patent publication US6617282B2, “Processes for preparing 3-phenyl-2,4(1H, 3H)-pyrimidinediones” (Ishihara Sangyo Kaisha, Ltd., priority 2001, dated 2003)
